# How the values were obtained:
# human CB2 receptor = human CB2 receptor (Homo sapiens (Human), UniProt P34972); assay: cAMP assay, CHO cells expressing human CB2 receptors; format: cell-based; settings: functional cAMP assay, read-out: CB2 hcAMP EC50
# Procedure, shortened: (§1)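 CHO cells with human CB1 or CB2 were switched to Krebs Ringer bicarbonate buffer with 1 mM IBMX for 30 min at 30 °C, then given compound for 30 min at 30 °C. cAMP was measured by time-resolved FRET against a cAMP standard curve, and EC50 values were calculated.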
# human CB1 receptor = human CB1 receptor (Homo sapiens (Human), UniProt P21554); assay: cAMP assay, CHO cells expressing human CB1 receptors; format: cell-based; settings: functional cAMP assay, read-out: CB1 hcAMP EC50
# Procedure, shortened: as §1
# human CB1 receptor, sequence (P21554 whole entry): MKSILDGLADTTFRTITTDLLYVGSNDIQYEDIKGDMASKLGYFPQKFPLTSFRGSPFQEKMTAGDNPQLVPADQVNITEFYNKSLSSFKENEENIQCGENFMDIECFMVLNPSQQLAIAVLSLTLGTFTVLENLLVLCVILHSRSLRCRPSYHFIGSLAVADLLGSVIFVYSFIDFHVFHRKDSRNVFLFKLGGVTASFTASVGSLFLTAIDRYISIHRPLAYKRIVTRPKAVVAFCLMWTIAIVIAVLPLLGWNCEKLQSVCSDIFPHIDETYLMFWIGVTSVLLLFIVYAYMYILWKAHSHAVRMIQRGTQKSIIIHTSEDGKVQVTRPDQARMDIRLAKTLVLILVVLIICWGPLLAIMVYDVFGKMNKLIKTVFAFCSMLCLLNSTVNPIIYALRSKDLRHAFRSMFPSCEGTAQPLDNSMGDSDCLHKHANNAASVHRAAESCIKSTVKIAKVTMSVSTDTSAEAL
# human CB2 receptor, sequence (P34972 whole entry): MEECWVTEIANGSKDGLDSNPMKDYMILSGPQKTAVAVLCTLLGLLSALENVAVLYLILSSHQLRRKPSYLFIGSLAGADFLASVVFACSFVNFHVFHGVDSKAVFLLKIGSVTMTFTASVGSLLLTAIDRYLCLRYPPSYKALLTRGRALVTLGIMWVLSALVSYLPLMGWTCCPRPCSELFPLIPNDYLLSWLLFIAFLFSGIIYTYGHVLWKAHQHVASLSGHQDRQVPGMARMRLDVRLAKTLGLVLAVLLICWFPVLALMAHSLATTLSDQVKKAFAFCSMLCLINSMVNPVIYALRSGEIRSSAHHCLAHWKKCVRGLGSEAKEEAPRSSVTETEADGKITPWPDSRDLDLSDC
smiles,measurement,setting,value
"CC(=O)N[C@H]1CCN(c2nc(OCC(C)(C)C)nc3c2nnn3Cc2nonc2C)C1 [Example 79, N-[(3S)-1-[5-(2,2-Dimethylpropoxy)-3-[(4-methyl-1,2,5-oxadiazol-3-yl)methyl]triazolo [4,5-d]pyrimidin-7-yl]pyrrolidin-3-yl]acetamide]",EC50,human CB2 receptor,72.7 nM
same,EC50,human CB1 receptor,> 10000 nM
"CC(=O)N[C@H]1CCN(c2nc(O[C@@H](C)C(F)(F)F)nc3c2nnn3Cc2ccccc2Cl)C1 [Example 80, N-[(3S)-1-[3-[(2-Chlorophenyl)methyl]-5-[(2S)-1,1,1-trifluoropropan-2-yl]oxytriazolo [4,5-d]pyrimidin-7-yl]pyrrolidin-3-yl]acetamide]",EC50,human CB2 receptor,159 nM
same,EC50,human CB1 receptor,> 10000 nM
"CCSc1nc(N2CCC(F)(F)C2)c2nnn(Cc3ccccc3Cl)c2n1 [Example 82, 3-[(2-Chlorophenyl)methyl]-7-(3,3-difluoropyrrolidin-1-yl)-5-ethylsulfanyltriazolo [4,5-d]pyrimidine]",EC50,human CB2 receptor,0.7 nM
same,EC50,human CB1 receptor,183 nM
"FC(F)(F)CSc1nc(N2CCC(F)(F)C2)c2nnn(Cc3ccccc3Cl)c2n1 [Example 83, 3-[(2-Chlorophenyl)methyl]-7-(3,3-difluoropyrrolidin-1-yl)-5-(2,2,2-trifluoroethylsulfanyl)triazolo[4,5-d]pyrimidine]",EC50,human CB2 receptor,1.9 nM
same,EC50,human CB1 receptor,> 10000 nM
"CC(C)Sc1nc(N2CCC(F)(F)C2)c2nnn(Cc3ccccc3Cl)c2n1 [Example 84, 3-[(2-Chlorophenyl)methyl]-7-(3,3-difluoropyrrolidin-1-yl)-5-propan-2-ylsulfanyltriazolo[4,5-d]pyrimidine]",EC50,human CB2 receptor,2.3 nM
same,EC50,human CB1 receptor,80 nM
"CC(C)(C)Sc1nc(N2CCC(F)(F)C2)c2nnn(Cc3ccccc3Cl)c2n1 [Example 85, 5-tert-Butylsulfanyl-3-[(2-chlorophenyl)methyl]-7-(3,3-difluoropyrrolidin-1-yl)triazolo[4,5-d]pyrimidine]",EC50,human CB2 receptor,0.9 nM
same,EC50,human CB1 receptor,108 nM
"CCS(=O)(=O)c1nc(N2CCC(F)(F)C2)c2nnn(Cc3ccccc3Cl)c2n1 [Example 86, 3-[(2-Chlorophenyl)methyl]-7-(3,3-difluoropyrrolidin-1-yl)-5-ethylsulfonyltriazolo [4,5-d]pyrimidine]",EC50,human CB2 receptor,86.6 nM
same,EC50,human CB1 receptor,> 10000 nM
"O=S(=O)(Cc1ccccc1)c1nc(N2CCC(F)(F)C2)c2nnn(Cc3ccccc3Cl)c2n1 [Example 87, 5-Benzylsulfonyl-3-[(2-chlorophenyl)methyl]-7-(3,3-difluoropyrrolidin-1-yl)triazolo [4,5-d]pyrimidine]",EC50,human CB2 receptor,83 nM
same,EC50,human CB1 receptor,> 10000 nM
"CC(C)S(=O)(=O)c1nc(N2CCC(F)(F)C2)c2nnn(Cc3ccccc3Cl)c2n1 [Example 88, 3-[(2-Chlorophenyl)methyl]-7-(3,3-difluoropyrrolidin-1-yl)-5-propan-2-ylsulfonyltriazolo[4,5-d]pyrimidine]",EC50,human CB2 receptor,1.7 nM
same,EC50,human CB1 receptor,> 10000 nM
"OCCSc1nc(N2CCC(F)(F)C2)c2nnn(Cc3ccccc3Cl)c2n1 [Example 89, 2-[3-[(2-Chlorophenyl)methyl]-7-(3,3-difluoropyrrolidin-1-yl)triazolo[4,5-d]pyrimidin-5-yl]sulfanylethanol]",EC50,human CB2 receptor,7.4 nM
same,EC50,human CB1 receptor,> 10000 nM
"CC(O)CSc1nc(N2CCC(F)(F)C2)c2nnn(Cc3ccccc3Cl)c2n1 (stereo not drawn) [Example 90, 1-[3-[(2-Chlorophenyl)methyl]-7-(3,3-difluoropyrrolidin-1-yl)triazolo[4,5-d]pyrimidin-5-yl]sulfanylpropan-2-ol]",EC50,human CB2 receptor,15.6 nM
same,EC50,human CB1 receptor,> 10000 nM
"CCCCSc1nc(N2CCC(F)(F)C2)c2nnn(Cc3ccccc3Cl)c2n1 [Example 91, 5-Butylsulfanyl-3-[(2-chlorophenyl)methyl]-7-(3,3-difluoropyrrolidin-1-yl)triazolo [4,5-d]pyrimidine]",EC50,human CB2 receptor,6.9 nM
same,EC50,human CB1 receptor,> 10000 nM
"CC(C)CSc1nc(N2CCC(F)(F)C2)c2nnn(Cc3ccccc3Cl)c2n1 [Example 92, 3-[(2-Chlorophenyl)methyl]-7-(3,3-difluoropyrrolidin-1-yl)-5-(2-methylpropylsulfanyl)triazolo[4,5-d]pyrimidine]",EC50,human CB2 receptor,2.5 nM
same,EC50,human CB1 receptor,> 10000 nM
"CCCCS(=O)(=O)c1nc(N2CCC(F)(F)C2)c2nnn(Cc3ccccc3Cl)c2n1 [Example 93, 5-Butylsulfonyl-3-[(2-chlorophenyl)methyl]-7-(3,3-difluoropyrrolidin-1-yl)triazolo [4,5-d]pyrimidine]",EC50,human CB2 receptor,8.8 nM
same,EC50,human CB1 receptor,> 10000 nM
"CC(C)CS(=O)(=O)c1nc(N2CCC(F)(F)C2)c2nnn(Cc3ccccc3Cl)c2n1 [Example 94, 3-[(2-Chlorophenyl)methyl]-7-(3,3-difluoropyrrolidin-1-yl)-5-(2-methylpropylsulfonyl)triazolo[4,5-d]pyrimidine]",EC50,human CB2 receptor,2.8 nM
same,EC50,human CB1 receptor,> 10000 nM
"CC(O)CS(=O)(=O)c1nc(N2CCC(F)(F)C2)c2nnn(Cc3ccccc3Cl)c2n1 (stereo not drawn) [Example 95, 1-[3-[(2-Chlorophenyl)methyl]-7-(3,3-difluoropyrrolidin-1-yl)triazolo[4,5-d]pyrimidin-5-yl]sulfonylpropan-2-ol]",EC50,human CB2 receptor,64.4 nM
same,EC50,human CB1 receptor,> 10000 nM
"COCCS(=O)(=O)c1nc(N2CCC(F)(F)C2)c2nnn(Cc3ccccc3Cl)c2n1 [Example 96, 3-[(2-Chlorophenyl)methyl]-7-(3,3-difluoropyrrolidin-1-yl)-5-(2-methoxyethylsulfonyl)triazolo[4,5-d]pyrimidine]",EC50,human CB2 receptor,5.1 nM
same,EC50,human CB1 receptor,> 10000 nM
"CC(=O)N[C@H]1CCN(c2nc(NC(C)(C)C)nc3c2nnn3Cc2ccccc2Cl)C1 [Example 97, N-[(3S)-1-[5-(tert-butylamino)-3-[(2-chlorophenyl)methyl]triazolo[4,5-d]pyrimidin-7-yl]pyrrolidin-3-yl]acetamide]",EC50,human CB2 receptor,38 nM
same,EC50,human CB1 receptor,> 10000 nM

# — patent publication US9593123B2, “Triazolo[4,5-D]pyrimidine derivatives” (Hoffmann-La Roche Inc., priority 2013, dated 2017)
